Source: US20240208968A1, “ALPHA V BETA 6 AND ALPHA V BETA 1 INTEGRIN INHIBITORS AND USES THEREOF” (DiCE Molecules SV, Inc., priority 2021, published 2024)
Where a name gives a salt, the structure may show the parent alone.

How the values were obtained:
[1] = molecular target: αvβ6 (Homo sapiens, UniProt P06756+P18564); assay: Solid Phase Integrin αvβ6 Assay; type: binding
Procedure, shortened: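 Inhibition of αvβ6 binding to immobilized recombinant TGFb1-LAP (1 μg/mL coating), 1 h at room temperature with 1 mM MnCl2 in BSA/TBST buffer, integrin diluted to 0.2 μg/mL before addition. Streptavidin-HRP/TMB read-out; four-parameter logistic fitting gave IC50.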

[2] = molecular target: αvβ1 (Homo sapiens, UniProt P05556+P06756); assay: Solid Phase Integrin αvβ1 Assay; type: binding
Procedure, shortened: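 Compound competes for αvβ1 binding to immobilized TGFb1-LAP (1 µg/mL coat) in Mn2+ (1 mM MnCl2), 2% BSA binding buffer over 90 min at room temperature, integrin added at 0.2 µg/mL. Read-out: streptavidin-HRP/TMB; IC50 from Levenberg-Marquardt four-parameter fit.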

Sequence of αvβ6 (P06756 31-992 limits assumed): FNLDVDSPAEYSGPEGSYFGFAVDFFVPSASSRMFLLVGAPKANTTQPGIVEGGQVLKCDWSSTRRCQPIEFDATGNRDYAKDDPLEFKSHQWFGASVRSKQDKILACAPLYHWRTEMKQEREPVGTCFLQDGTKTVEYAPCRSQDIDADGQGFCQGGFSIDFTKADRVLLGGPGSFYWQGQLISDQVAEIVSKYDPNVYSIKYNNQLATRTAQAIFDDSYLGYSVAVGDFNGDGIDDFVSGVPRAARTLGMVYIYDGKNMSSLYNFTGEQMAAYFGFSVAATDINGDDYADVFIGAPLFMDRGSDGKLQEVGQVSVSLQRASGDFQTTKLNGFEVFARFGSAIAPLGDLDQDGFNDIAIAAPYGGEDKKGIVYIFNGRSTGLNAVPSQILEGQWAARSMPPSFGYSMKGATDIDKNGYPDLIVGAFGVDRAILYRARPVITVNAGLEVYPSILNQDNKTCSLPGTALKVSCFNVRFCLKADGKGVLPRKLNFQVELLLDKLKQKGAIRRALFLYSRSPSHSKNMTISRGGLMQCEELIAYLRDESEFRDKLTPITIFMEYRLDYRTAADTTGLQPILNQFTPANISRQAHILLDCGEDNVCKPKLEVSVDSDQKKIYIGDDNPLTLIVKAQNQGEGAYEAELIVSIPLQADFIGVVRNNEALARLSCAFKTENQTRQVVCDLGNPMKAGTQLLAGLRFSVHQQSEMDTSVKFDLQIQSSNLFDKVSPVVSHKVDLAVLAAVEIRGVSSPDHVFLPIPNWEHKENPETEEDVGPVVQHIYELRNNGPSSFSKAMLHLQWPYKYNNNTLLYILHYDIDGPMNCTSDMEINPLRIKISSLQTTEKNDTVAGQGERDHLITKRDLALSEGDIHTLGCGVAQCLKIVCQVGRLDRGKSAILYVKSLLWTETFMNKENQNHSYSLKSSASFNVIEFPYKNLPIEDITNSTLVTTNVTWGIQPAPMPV
Sequence of αvβ6 (P18564 22-707 limits assumed): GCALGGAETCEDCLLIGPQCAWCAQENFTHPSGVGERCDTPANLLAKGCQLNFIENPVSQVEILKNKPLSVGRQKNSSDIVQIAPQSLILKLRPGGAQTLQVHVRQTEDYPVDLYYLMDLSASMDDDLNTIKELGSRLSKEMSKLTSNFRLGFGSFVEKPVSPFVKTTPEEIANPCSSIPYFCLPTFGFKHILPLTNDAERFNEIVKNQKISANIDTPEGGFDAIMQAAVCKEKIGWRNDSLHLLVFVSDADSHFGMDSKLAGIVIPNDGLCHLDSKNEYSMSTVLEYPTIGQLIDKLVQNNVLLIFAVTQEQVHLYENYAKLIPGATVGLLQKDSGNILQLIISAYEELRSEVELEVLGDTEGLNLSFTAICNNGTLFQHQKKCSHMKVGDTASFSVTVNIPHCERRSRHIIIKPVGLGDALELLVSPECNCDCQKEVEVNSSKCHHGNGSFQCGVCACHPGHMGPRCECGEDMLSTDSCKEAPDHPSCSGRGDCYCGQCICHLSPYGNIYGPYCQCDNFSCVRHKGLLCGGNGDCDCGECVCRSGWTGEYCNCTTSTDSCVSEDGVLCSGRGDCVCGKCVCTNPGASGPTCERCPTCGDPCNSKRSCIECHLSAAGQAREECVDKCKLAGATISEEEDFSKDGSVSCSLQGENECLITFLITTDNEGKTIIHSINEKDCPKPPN
Sequence of αvβ1 (P06756 31-992 limits assumed): as the sequence (P06756 31-992 limits assumed) above
Sequence of αvβ1 (P05556 21-728 limits assumed): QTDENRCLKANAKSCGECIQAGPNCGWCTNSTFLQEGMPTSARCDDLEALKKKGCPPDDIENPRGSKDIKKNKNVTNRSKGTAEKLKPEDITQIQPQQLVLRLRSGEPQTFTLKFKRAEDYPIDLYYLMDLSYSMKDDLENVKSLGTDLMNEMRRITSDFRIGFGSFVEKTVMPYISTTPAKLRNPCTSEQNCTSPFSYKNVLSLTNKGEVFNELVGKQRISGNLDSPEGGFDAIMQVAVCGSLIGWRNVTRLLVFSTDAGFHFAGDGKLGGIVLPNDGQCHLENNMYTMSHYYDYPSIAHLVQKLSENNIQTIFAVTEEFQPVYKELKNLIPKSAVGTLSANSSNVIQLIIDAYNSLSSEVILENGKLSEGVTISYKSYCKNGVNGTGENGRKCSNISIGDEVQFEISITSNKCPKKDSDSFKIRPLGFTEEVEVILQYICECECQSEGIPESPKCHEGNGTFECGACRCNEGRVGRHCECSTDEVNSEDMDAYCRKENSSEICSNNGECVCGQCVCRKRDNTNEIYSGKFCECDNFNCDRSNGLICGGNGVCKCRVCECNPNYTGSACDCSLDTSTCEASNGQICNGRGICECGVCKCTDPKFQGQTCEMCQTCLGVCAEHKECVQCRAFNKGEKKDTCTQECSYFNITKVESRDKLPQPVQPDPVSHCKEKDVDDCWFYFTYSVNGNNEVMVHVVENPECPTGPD

SMILES | IC50 [1] [nM] | IC50 [2] [nM]
O=C(O)C[C@H](NC(=O)[C@@H]1CCCN(CCCCc2ccc3c(n2)NCCC3)C1)c1ccccc1 [Compound 288, (S)-3-phenyl-3-((R)-1-(4-(5,6,7,8-tetrahydro-1,8-naphthyridin-2-yl)butyl)piperidine-3-carboxamido)propanoic acid hydrochloride] | < 100 | 100 to 1000
O=C(O)C[C@H](NC(=O)[C@@H]1CCCN(C(=O)CCc2ccc3c(n2)NCCC3)C1)c1ccccc1 [Compound 289, (S)-3-phenyl-3-((R)-1-(3-(5,6,7,8-tetrahydro-1,8-naphthyridin-2-yl)propanoyl)piperidine-3-carboxamido)propanoic acid hydrochloride] | 100 to 1000 | 100 to 1000
O=C(O)C[C@H](NC(=O)[C@@H]1CCCN(CCc2ccc3c(n2)NCCC3)C1)c1ccccc1 [Compound 290, (S)-3-phenyl-3-((R)-1-(2-(5,6,7,8-tetrahydro-1,8-naphthyridin-2-yl)ethyl)piperidine-3-carboxamido)propanoic acid] | 100 to 1000 | > 1000
O=C(O)C[C@H](NC(=O)[C@@H]1CN(CCCc2ccc3c(n2)NCCC3)CC(F)(F)C1)c1ccccc1 [Compound 291-A, (3S)-3-(5,5-difluoro-1-(3-(5,6,7,8-tetrahydro-1,8-naphthyridin-2-yl)propyl)piperidine-3-carboxamido)-3-phenylpropanoic acid] | < 100 | 100 to 1000
O=C(O)C[C@H](NC(=O)[C@H]1CN(CCCc2ccc3c(n2)NCCC3)CC(F)(F)C1)c1ccccc1 [Compound 291-B, (3S)-3-(5,5-difluoro-1-(3-(5,6,7,8-tetrahydro-1,8-naphthyridin-2-yl)propyl)piperidine-3-carboxamido)-3-phenylpropanoic acid] | 100 to 1000 | 100 to 1000
O=C(O)C[C@H](NC[C@@H]1CCCN(CCCc2ccc3c(n2)NCCC3)C1)c1ccccc1 [Compound 292, (S)-3-phenyl-3-(S)-1-(3-(5,6,7,8-tetrahydro-1,8-naphthyridin-2-yl)propyl)piperidin-3-yl)methyl)amino)propanoic acid hydrochloride] | > 1000 | > 1000
CN(C[C@@H]1CCCN(CCCc2ccc3c(n2)NCCC3)C1)[C@@H](CC(=O)O)c1ccccc1 [Compound 293, (S)-3-(methyl(((R)-1-(3-(5,6,7,8-tetrahydro-1,8-naphthyridin-2-yl)propyl)piperidin-3-yl)methyl)amino)-3-phenylpropanoic acid hydrochloride] | > 1000 | > 1000
O=C(O)C[C@H](OC[C@@H]1CCCN(CCCc2ccc3c(n2)NCCC3)C1)c1ccccc1 [Compound 294, (S)-3-phenyl-3-(((R)-1-(3-(5,6,7,8-tetrahydro-1,8-naphthyridin-2-yl)propyl)piperidin-3-yl)methoxy)propanoic acid] | > 1000 | > 1000
O=C(O)C[C@H](CN[C@@H]1CCCN(CCCc2ccc3c(n2)NCCC3)C1)c1ccccc1 [Compound 295, (S)-3-phenyl-4-(((R)-1-(3-(5,6,7,8-tetrahydro-1,8-naphthyridin-2-yl)propyl)piperidin-3-yl)amino)butanoic acid] | < 100 | < 100
CN(C[C@@H](CC(=O)O)c1ccccc1)[C@@H]1CCCN(CCCc2ccc3c(n2)NCCC3)C1 [Compound 296, (S)-4-(methyl((R)-1-(3-(5,6,7,8-tetrahydro-1,8-naphthyridin-2-yl)propyl)piperidin-3-yl)amino)-3-phenylbutanoic acid] | > 1000 | 100 to 1000
O=C(O)CC(CO[C@@H]1CCCN(CCCc2ccc3c(n2)NCCC3)C1)c1ccccc1 (stereo partly drawn) [Compound 297, 3-phenyl-4-(((R)-1-(3-(5,6,7,8-tetrahydro-1,8-naphthyridin-2-yl)propyl)piperidin-3-yl)oxy)butanoic acid hydrochloride] | < 100 | < 100
O=C(O)C[C@H](CO[C@@H]1CCCN(CCCc2ccc3c(n2)NCCC3)C1)c1ccccc1 [Compound 297-A, 3-phenyl-4-(((R)-1-(3-(5,6,7,8-tetrahydro-1,8-naphthyridin-2-yl)propyl)piperidin-3-yl)oxy)butanoic acid] | 100 to 1000 | 100 to 1000
O=C(O)C[C@@H](CO[C@@H]1CCCN(CCCc2ccc3c(n2)NCCC3)C1)c1ccccc1 [Compound 297-B, 3-phenyl-4-(((R)-1-(3-(5,6,7,8-tetrahydro-1,8-naphthyridin-2-yl)propyl)piperidin-3-yl)oxy)butanoic acid] | < 100 | < 100
O=C(O)C[C@@H](CC[C@@H]1CCCN(CCCc2ccc3c(n2)NCCC3)C1)c1ccccc1 [Compound 298-A, 3-phenyl-5-((R)-1-(3-(5,6,7,8-tetrahydro-1,8-naphthyridin-2-yl)propyl)piperidin-3-yl)pentanoi c acid] | 100 to 1000 | < 100
O=C(O)C[C@H](CC[C@@H]1CCCN(CCCc2ccc3c(n2)NCCC3)C1)c1ccccc1 [Compound 298-B, 3-phenyl-5-((R)-1-(3-(5,6,7,8-tetrahydro-1,8-naphthyridin-2-yl)propyl)piperidin-3-yl)pentanoi c acid] | < 100 | < 100
O=C(O)C[C@H](C(=O)N[C@@H]1CCCN(CCCc2ccc3c(n2)NCCC3)C1)c1ccccc1 [Compound 299, (S)-4-oxo-3-phenyl-4-(((R)-1-(3-(5,6,7,8-tetrahydro-1,8-naphthyridin-2-yl)propyl)piperidin-3-yl)amino)butanoic acid] | > 1000 | > 1000

Second part, the compound after the results:

IC50 [1] [nM] | IC50 [2] [nM] | SMILES
> 1000 | > 1000 | O=C(NC1([C@H](C(=O)O)c2cccc(-c3ccccc3)c2)CC1)[C@@H]1CCCN(CCCc2ccc3c(n2)NCCC3)C1 [Compound 301-A, 2-([1,1′-biphenyl]-3-yl)-2-(1-((R)-1-(3-(5,6,7,8-tetrahydro-1,8-naphthyridin-2-yl)propyl)piperidine-3-carboxamido)cyclopropyl)acetic acid]
> 1000 | > 1000 | O=C(NC1([C@@H](C(=O)O)c2cccc(-c3ccccc3)c2)CC1)[C@@H]1CCCN(CCCc2ccc3c(n2)NCCC3)C1 [Compound 301-B, 2-([1,1′-biphenyl]-3-yl)-2-(1-((R)-1-(3-(5,6,7,8-tetrahydro-1,8-naphthyridin-2-yl)propyl)piperidine-3-carboxamido)cyclopropyl)acetic acid]
< 100 | < 100 | O=C(NC[C@@H](C(=O)O)c1cccc(Br)c1)[C@@H]1CCCN(CCCc2ccc3c(n2)NCCC3)C1 [Compound 302]
< 100 | < 100 | O=C(NC[C@H](C(=O)O)c1cccc(Br)c1)[C@@H]1CCCN(CCCc2ccc3c(n2)NCCC3)C1 [Compound 303]
< 100 | < 100 | O=C(NC[C@H](NC(=O)[C@@H]1CC2CCC1CC2)C(=O)O)[C@@H]1CCCN(CCCc2ccc3c(n2)NCCC3)C1 [Compound 304]
< 100 | < 100 | O=C(NC[C@H](NC(=O)[C@H]1CC2CCC1CC2)C(=O)O)[C@@H]1CCCN(CCCc2ccc3c(n2)NCCC3)C1 [Compound 305]
100 to 1000 | 100 to 1000 | O=C(NC[C@H](C(=O)O)c1cc(F)cc(-c2ccccc2)c1)[C@@H]1CCCN(CCCc2ccc3c(n2)NCCC3)C1 [Compound 306]
< 100 | < 100 | O=C(NC[C@@H](C(=O)O)c1cc(F)cc(-c2ccccc2)c1)[C@@H]1CCCN(CCCc2ccc3c(n2)NCCC3)C1 [Compound 307]
100 to 1000 | 100 to 1000 | O=C(NC[C@@H](C(=O)O)c1ccc(F)c(-c2ccccc2)c1)[C@@H]1CCCN(CCCc2ccc3c(n2)NCCC3)C1 [Compound 308]
< 100 | < 100 | O=C(NC[C@H](C(=O)O)c1ccc(F)c(-c2ccccc2)c1)[C@@H]1CCCN(CCCc2ccc3c(n2)NCCC3)C1 [Compound 309]
< 100 | < 100 | O=C(N[C@@H](CNC(=O)[C@@H]1CCCN(CCCc2ccc3c(n2)NCCC3)C1)C(=O)O)C1CCOCC1 [Compound 311]
< 100 | < 100 | O=C(N[C@@H](CNC(=O)[C@@H]1CCCN(CCCc2ccc3c(n2)NCCC3)C1)C(=O)O)c1ccncc1 [Compound 312]
< 100 | < 100 | O=C(N[C@@H](CNC(=O)[C@@H]1CCCN(CCCc2ccc3c(n2)NCCC3)C1)C(=O)O)c1nnc(C2CC2)o1 [Compound 313]
100 to 1000 | 100 to 1000 | O=C(NC[C@@H](C(=O)O)c1cccc2c1cnn2CC1CC1)[C@@H]1CCCN(CCCc2ccc3c(n2)NCCC3)C1 [Compound 314]
< 100 | < 100 | O=C(NC[C@H](C(=O)O)c1cccc2c1cnn2CC1CC1)[C@@H]1CCCN(CCCc2ccc3c(n2)NCCC3)C1 [Compound 315]
> 1000 | 100 to 1000 | O=C(NC[C@@H](C(=O)O)c1cccc2nn(CC3CC3)cc12)[C@@H]1CCCN(CCCc2ccc3c(n2)NCCC3)C1 [Compound 316]
< 100 | < 100 | O=C(NC[C@H](C(=O)O)c1cccc2nn(CC3CC3)cc12)[C@@H]1CCCN(CCCc2ccc3c(n2)NCCC3)C1 [Compound 317]
> 1000 | 100 to 1000 | O=C(NC[C@H](C(=O)O)c1cccc2n[nH]cc12)[C@@H]1CCCN(CCCc2ccc3c(n2)NCCC3)C1 [Compound 318]
< 100 | < 100 | O=C(NC[C@@H](C(=O)O)c1cccc2n[nH]cc12)[C@@H]1CCCN(CCCc2ccc3c(n2)NCCC3)C1 [Compound 319]
> 1000 | > 1000 | O=C(NC[C@@H](C(=O)O)c1cccc2cnn([C@H]3CCOC3)c12)[C@@H]1CCCN(CCCc2ccc3c(n2)NCCC3)C1 [Compound 320]
100 to 1000 | < 100 | O=C(NC[C@H](C(=O)O)c1cccc2cnn([C@H]3CCOC3)c12)[C@@H]1CCCN(CCCc2ccc3c(n2)NCCC3)C1 [Compound 321]
